Measured values taken from US9802904B2, “Inhibitors of the USP1/UAF1 deubiquitinase complex and uses thereof” (The United States of America, as represented by the …, priority 2012, dated 2017).

test system: U2OS cells; assay: Cytotoxicity assay in osteosarcoma U2OS cell line; assay type: cell-based, human; conditions: Homo sapiens, U2OS; alone; read-out: EC50 of killing U2OS cells
Procedure: (§1) The H596 [human non-small cell lung cancer (NSCLC)] cell line was cultured in RFMI-1640 medium containing 10% fetal bovine serum (FBS) at 37° C. and 5% CO2. The HEK293T (human embryonic kidney 293T), U2OS (human osteosarcoma), and HCT116 (human colon cancer) cell lines were cultured in Dulbecco's modified Eagle's medium (DMEM) supplemented with 10% FBS at 37° C. and 5% CO2. All culture mediums contain 100 units/mL penicillin and 0.1 mg/mL streptomycin as antibiotics.
(§2) For cytotoxicity assays, 5×10^3 H596 cells were seeded in each well of the 96-well plate and grown for 24 hr in humidified incubator. […] In the combination assay, cisplatin was dissolved in saline solution and compound 81 was dissolved in DMSO. Equal volume of above solutions was added to each well and cells were incubated for 48 hr. Cells treated with equal volume of DMSO and saline were used as control and designated as 100% viability. The cell viability was measured by CCK-8 solution (Dojindo Molecular Technologies, Inc) as previously described (Chen, J., et al.).
Cytotoxicity assays were run as described in Example 6 using the cisplatin-sensitive NSCLC H460 cell line and the osteosarcoma U2OS cell line.

`Cc1cnc(-c2ccccc2C(C)C)nc1NCc1ccc(-n2ccnn2)cc1` [Compound 81, N-(4-(1H-1,2,3-triazol-1-yl)benzyl)-2-(2-isopropylphenyl)-5-methylpyrimidin-4-amine] was tested, and the EC50 was greater than 10 µM.

same assay, conditions: alone; read-out: EC50 of killing U2OS cells

Compound `N.N.[Cl][Pt][Cl]` [cisplatin, reference compound] has an EC50 of 0.629 µM.

test system: USP1/UAF1 cellular activity in H596 cells; assay: PCNA and FANCD2 monoubiquitination in H596 cells (Western blot); assay type: cell-based, human; conditions: 30 μM compound 81, 6 hr, as compared to control
Procedure: (§3) HEK293T or H596 cells were plated in 10 cm dishes and synchronized in S-phase with the double-thymidine block method as described previously (Chen et al., Chemistry & Biology, 2011. 18(11): 1390-400). […] Negative control cells were treated with an equal volume of DMSO and saline (0.9% NaCl). After 6 hr at 37° C., cells were harvested and lysed. Cell extracts were separated on SDS-PAGE and transferred to nitrocellulose membrane. The membranes were then blotted with PCNA antibody or FANCD2 antibody, followed by incubation with HRP-conjugated anti-mouse secondary antibody. Images were quantified in FluorChem Q software (Imgen Technologies).

`Cc1cnc(-c2ccccc2C(C)C)nc1NCc1ccc(-n2ccnn2)cc1` [Compound 81, N-(4-(1H-1,2,3-triazol-1-yl)benzyl)-2-(2-isopropylphenyl)-5-methylpyrimidin-4-amine] was tested, and the “PCNA and FANCD2 monoubiquitination” value was “increase in PCNA and FANCD2 monoubiquitination”.

test system: USP1/UAF1 cellular activity in HEK293T cells; assay: PCNA and FANCD2 monoubiquitination in HEK293T cells (Western blot); assay type: cell-based, human; conditions: 30 μM compound 81, 6 hr, as compared to control
Procedure: as §3

For `Cc1cnc(-c2ccccc2C(C)C)nc1NCc1ccc(-n2ccnn2)cc1` [Compound 81, N-(4-(1H-1,2,3-triazol-1-yl)benzyl)-2-(2-isopropylphenyl)-5-methylpyrimidin-4-amine], the “PCNA and FANCD2 monoubiquitination” value was “increase in PCNA and FANCD2 monoubiquitination”.

test system: H596 cells; assay: Cytotoxicity assay in H596 cells (CCK-8 cell viability); assay type: cell-based, human; conditions: Homo sapiens, NCI-H596; alone, 48 hr; read-out: EC50 of killing H596 cells
Procedure: as §1, §2

For `Cc1cnc(-c2ccccc2C(C)C)nc1NCc1ccc(-n2ccnn2)cc1` [Compound 81, N-(4-(1H-1,2,3-triazol-1-yl)benzyl)-2-(2-isopropylphenyl)-5-methylpyrimidin-4-amine], the EC50 was greater than 10 µM.

same assay, conditions: alone, 48 hr; read-out: EC50 of killing H596 cells

`N.N.[Cl][Pt][Cl]` [cisplatin, reference compound] was tested, and the EC50 was 0.486 µM.

biological target: USP1/UAF1 (Homo sapiens (Human), UniProt O94782); assay: qHTS assay for USP1/UAF1 activity (fluorometric, ubiquitin-rhodamine110); assay type: biochemical; conditions: USP1/UAF1 inhibition, Table 1 of Example 8
Sequence (O94782 whole entry): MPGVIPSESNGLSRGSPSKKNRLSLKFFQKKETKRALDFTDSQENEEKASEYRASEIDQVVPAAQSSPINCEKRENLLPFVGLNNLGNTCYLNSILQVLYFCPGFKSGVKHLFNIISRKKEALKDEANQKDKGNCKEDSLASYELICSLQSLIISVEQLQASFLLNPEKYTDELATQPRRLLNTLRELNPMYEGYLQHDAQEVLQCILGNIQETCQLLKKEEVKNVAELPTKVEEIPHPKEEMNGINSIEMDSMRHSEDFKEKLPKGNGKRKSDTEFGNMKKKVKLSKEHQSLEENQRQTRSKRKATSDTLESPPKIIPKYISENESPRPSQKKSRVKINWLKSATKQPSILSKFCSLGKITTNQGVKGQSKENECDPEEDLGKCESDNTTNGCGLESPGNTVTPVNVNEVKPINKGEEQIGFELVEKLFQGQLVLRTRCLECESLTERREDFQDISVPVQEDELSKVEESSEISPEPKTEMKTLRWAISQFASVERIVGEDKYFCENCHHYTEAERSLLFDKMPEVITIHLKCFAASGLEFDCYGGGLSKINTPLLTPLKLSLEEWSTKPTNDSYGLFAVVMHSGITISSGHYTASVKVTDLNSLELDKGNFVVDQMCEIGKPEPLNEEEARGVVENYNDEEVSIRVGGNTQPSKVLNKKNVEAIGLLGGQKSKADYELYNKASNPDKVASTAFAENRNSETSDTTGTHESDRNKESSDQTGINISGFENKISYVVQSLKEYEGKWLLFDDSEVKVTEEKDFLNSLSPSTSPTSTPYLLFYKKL
Sequence (Q8TAF3 whole entry partner): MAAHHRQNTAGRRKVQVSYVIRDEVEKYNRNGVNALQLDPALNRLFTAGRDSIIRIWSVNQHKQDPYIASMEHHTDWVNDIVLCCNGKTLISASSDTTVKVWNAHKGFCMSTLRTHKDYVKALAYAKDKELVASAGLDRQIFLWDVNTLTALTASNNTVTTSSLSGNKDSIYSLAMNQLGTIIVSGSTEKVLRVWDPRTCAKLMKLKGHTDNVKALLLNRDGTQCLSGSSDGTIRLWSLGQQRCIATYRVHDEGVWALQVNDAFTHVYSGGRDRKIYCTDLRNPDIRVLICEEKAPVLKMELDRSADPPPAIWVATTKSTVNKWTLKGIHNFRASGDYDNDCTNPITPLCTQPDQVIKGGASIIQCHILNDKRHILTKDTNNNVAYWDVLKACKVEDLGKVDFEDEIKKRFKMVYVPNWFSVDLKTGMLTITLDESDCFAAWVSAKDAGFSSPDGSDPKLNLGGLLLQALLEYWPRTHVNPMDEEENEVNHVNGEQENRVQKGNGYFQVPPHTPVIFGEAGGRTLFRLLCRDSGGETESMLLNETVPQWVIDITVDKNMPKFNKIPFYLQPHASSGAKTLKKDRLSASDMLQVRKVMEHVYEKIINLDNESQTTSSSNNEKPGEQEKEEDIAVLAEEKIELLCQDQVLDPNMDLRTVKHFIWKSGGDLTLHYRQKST
Procedure: USP1/UAF1 activity was monitored in a fluorometric assay using ubiquitin-rhodamine110. Enzymatic reactions were conducted in an assay buffer (50 mM HEPES, pH 7.8, 0.5 mM EDTA, 100 mM NaCl, 1 mM TCEP, 0.1 mg/mL BSA, and 0.01% Tween-20) that contained 1 nM USP1/UAF1. […] The plates were incubated for 15 min to attain equilibrium, and then the enzymatic reaction was initiated by dispensing 1 μL of Ub-Rho solution (150 nM final concentration). The plates were directly transferred to a ViewLux high-throughput CCD imager (PerkinElmer), where kinetic measurements of rhodamine fluorescence were acquired using a 480 nm excitation/540 nm emission filter set. […] All screening operations were performed on a fully integrated robotic system (Kalypsys Inc., San Diego, Calif.) as described elsewhere. Plates containing DMSO only were included approximately every 50 plates throughout the screen to monitor any systematic trend in the assay signal associated with reagent dispenser variation or decrease in enzyme specific activity. PubChem AID: 651605.

Point of comparison: `FC(F)(F)c1ccccc1-c1ncc2c(NCC#Cc3cccnc3)cccc2n1` [Compound 15], IC50 7.6 µM. Against it:
- FC(F)(F)c1ccccc1-c1ncc2c(NCc3ccc(-c4ccc(Cl)cc4)cc3)cccc2n1 [Compound 17] — 3.5-fold lower, 2.2 µM
- FC(F)(F)c1ccccc1-c1ncc2c(NCc3ccc(-c4cccnc4)cc3)cccc2n1 [Compound 21] — 4-fold lower, 1.9 µM
- FC(F)(F)c1ccccc1-c1ncc2c(NCc3ccc(C4CCCCC4)cc3)cccc2n1 [Compound 25] — within 1.5-fold, 5.8 µM
- FC(F)(F)c1ccccc1-c1ncc2c(NCc3ccc(-c4ccc(Cl)c(Cl)c4)cc3)cccc2n1 [Compound 16] — 5.4-fold lower, 1.4 µM
- FC(F)(F)c1cc(-c2ccc(CNc3cccc4nc(-c5ccccc5C(F)(F)F)ncc34)cc2)ccc1Cl [Compound 22] — 3.5-fold lower, 2.2 µM
- FC(F)(F)c1cc(-c2ccc(CNc3cccc4nc(-c5ccccc5C(F)(F)F)ncc34)cc2)ccn1 [Compound 24] — 1.8-fold lower, 4.3 µM
- COc1ccc(CNc2cccc3nc(-c4ccccc4C(F)(F)F)ncc23)cc1 [Compound 8] — 2.5-fold lower, 3 µM
- FC(F)(F)c1ccccc1-c1ncc2c(NCc3ccc(Cl)c(Cl)c3)cccc2n1 [Compound 12] — within 1.5-fold, 11 µM
- FC(F)(F)c1ccccc1-c1ncc2c(NCc3ccc(Cl)cc3)cccc2n1 [Compound 10] — 2.5-fold lower, 3 µM
- FC(F)(F)c1ccccc1-c1ncc2c(NCc3ccc(N4CCOCC4)cc3)cccc2n1 [Compound 23] — the same, 7.6 µM
- FC(F)(F)c1ccccc1-c1ncc2c(NCc3ccc(-c4cccnc4)cc3)cccc2n1 [Compound 20] — 12-fold lower, 0.61 µM
- FC(F)(F)c1ccccc1-c1ncc2c(NCc3ccccc3)cccc2n1 [Compound 5] — 3.2-fold lower, 2.4 µM
- Cc1ccc(CNc2cccc3nc(-c4ccccc4C(F)(F)F)ncc23)s1 [Compound 13] — 1.8-fold lower, 4.3 µM
- FC(F)(F)c1ccccc1-c1ncc2c(NCc3ccc(-c4cccc(Cl)c4)cc3)cccc2n1 [Compound 18] — 4.5-fold lower, 1.7 µM
- FC(F)(F)c1ccccc1-c1ncc2c(NCc3cccs3)cccc2n1 [Compound 1] — within 1.5-fold, 7.9 µM
- FC(F)(F)c1ccccc1-c1ncc2c(NCc3ccc(-c4ccncc4)cc3)cccc2n1 [Compound 19] — 16-fold lower, 0.48 µM
- FC(F)(F)c1ccccc1-c1ncc2c(NCc3ccc(-c4ccccc4)cc3)cccc2n1 [Compound 6] — 2.5-fold lower, 3 µM
- N#Cc1ccc(CNc2cccc3nc(-c4ccccc4C(F)(F)F)ncc23)cc1 [Compound 14] — 2.2-fold lower, 3.4 µM
- FC(F)(F)c1ccc(CNc2cccc3nc(-c4ccccc4C(F)(F)F)ncc23)cc1 [Compound 11] — within 1.5-fold, 5.4 µM
- FC(F)(F)c1ccccc1-c1ncc2c(NCc3ccc4c(c3)OCO4)cccc2n1 [Compound 7] — within 1.5-fold, 5.4 µM
- Fc1ccc(CNc2cccc3nc(-c4ccccc4C(F)(F)F)ncc23)cc1 [Compound 9] — 3.2-fold lower, 2.4 µM

same assay, conditions: USP1/UAF1 inhibition, Table 3

Point of comparison: `Cc1nc(-c2ccccc2C(C)C)nc(NCc2ccc(-c3ccccc3)cc2)c1C` [Compound 66], IC50 0.14 µM. Against it:
- CC(C)c1ccccc1-c1nc2c(c(NCc3ccc(-c4ccccc4)cc3)n1)CCC2 [Compound 53] — 11-fold higher, 1.5 µM
- CC(C)c1ccccc1-c1nc(NCc2ccc(-c3ccccc3)cc2)c2nc[nH]c2n1 [Compound 52] — 15-fold higher, 2.12 µM
- Cc1cc(NCc2ccc(-c3ccccc3)cc2)nc(-c2ccccc2C(C)C)n1 [Compound 65] — 3.4-fold higher, 0.48 µM
- CC(C)c1ccccc1-c1nc(NCc2ccc(-c3ccccc3)cc2)c2cccn2n1 [Compound 54] — 1.6-fold higher, 0.22 µM
- CC(C)c1ccccc1C1=NCCC(NCc2ccc(-c3ccccc3)cc2)=N1 [Compound 58] — within 1.5-fold, 0.12 µM
- CC(C)c1ccccc1-c1ncc(N(C)C)c(NCc2ccc(-c3ccccc3)cc2)n1 [Compound 63] — within 1.5-fold, 0.15 µM
- CC(C)c1ccccc1-c1ncc(N)c(NCc2ccc(-c3ccccc3)cc2)n1 [Compound 62] — 1.9-fold higher, 0.27 µM
- CCc1cnc(-c2ccccc2C(C)C)nc1NCc1ccc(-c2ccccc2)cc1 [Compound 60] — 3.3-fold lower, 0.043 µM
- CC(C)c1ccccc1-c1nc(NCc2ccc(-c3ccccc3)cc2)c2ccsc2n1 [Compound 51] — 1.7-fold higher, 0.24 µM
- CC(C)c1ccccc1C1=NC2CNCCC2C(NCc2ccc(-c3ccccc3)cc2)=N1 (stereo not drawn) [Compound 55] — 3.4-fold higher, 0.48 µM
- CC(C)c1ccccc1-c1ncc(F)c(NCc2ccc(-c3ccccc3)cc2)n1 [Compound 61] — 2.3-fold lower, 0.061 µM
- CC(C)c1ccccc1-c1nc(NCc2ccc(-c3ccccc3)cc2)c2sccc2n1 [Compound 50] — within 1.5-fold, 0.12 µM
- CSc1cnc(-c2ccccc2C(C)C)nc1NCc1ccc(-c2ccccc2)cc1 [Compound 64] — 1.6-fold lower, 0.086 µM
- CC(C)c1ccccc1C1=NC2CCCC2C(NCc2ccc(-c3ccccc3)cc2)=N1 (stereo not drawn) [Compound 56] — the same, 0.14 µM
- CC(C)c1ccccc1C1=NC2C=COC2C(NCc2ccc(-c3ccccc3)cc2)=N1 (stereo not drawn) [Compound 57] — within 1.5-fold, 0.15 µM

same assay, conditions: USP1/UAF1 inhibition, Table 4

Point of comparison: `Cc1cnc(-c2ccccc2C(C)C)nc1NCc1ccc(-c2ccc(F)nc2)cc1` [Compound 79], IC50 0.061 µM. Against it:
- Cc1cnc(-c2ccccc2C(C)C)nc1NCC1CCN(C2COC2)CC1 [Compound 85] — 250-fold higher, 15 µM
- Cc1cnc(-c2ccccc2C(C)C)nc1NCc1ccc(C(N)=O)cc1 [Compound 84] — 110-fold higher, 6.8 µM
- Cc1cnc(-c2ccccc2C(C)C)nc1NC1(c2ccc(-c3cccnc3)cc2)CC1 [Compound 89] — 1.8-fold lower, 0.034 µM
- Cc1cnc(-c2ccccc2C(C)C)nc1NCc1cccnc1 [Compound 68] — 36-fold higher, 2.2 µM
- Cc1cnc(-c2ccccc2C(C)C)nc1NCc1ccc(-c2cccnc2)cc1 [Compound 86] — the same, 0.061 µM
- Cc1cnc(-c2ccccc2C(C)C)nc1NCc1ccc(C2CCCNC2)cc1 (stereo not drawn) [Compound 80] — 120-fold higher, 7.6 µM
- Cc1ccc(N2CCC(CNc3nc(-c4ccccc4C(C)C)ncc3C)CC2)cn1 [Compound 75] — 36-fold higher, 2.2 µM
- Cc1cnc(-c2ccccc2C(C)C)nc1NCc1ccc(-c2ccnc(C(F)(F)F)c2)cc1 [Compound 73] — 6.2-fold higher, 0.38 µM
- Cc1cnc(-c2ccccc2C(C)C)nc1NC(C)(C)c1ccc(-c2cccnc2)cc1 [Compound 90] — 3.1-fold higher, 0.19 µM
- Cc1cnc(-c2ccccc2C(C)C)nc1NCc1ccc(-c2cnn[nH]2)cc1 [Compound 82] — 3.9-fold higher, 0.24 µM
- Cc1ccc(-c2ccc(CNc3nc(-c4ccccc4C(C)C)ncc3C)cc2)cn1 [Compound 72] — within 1.5-fold, 0.043 µM
- Cc1cccc(C(CO)Nc2nc(-c3ccccc3C(C)C)ncc2C)c1 (stereo not drawn) [Compound 70] — 18-fold higher, 1.1 µM
- Cc1cnc(-c2ccccc2C(C)C)nc1NCc1ccc(-c2nnn[nH]2)cc1 [Compound 83] — 120-fold higher, 7.6 µM
- Cc1cnc(-c2ccccc2C(C)C)nc1NCc1cccs1 [Compound 69] — 3.6-fold higher, 0.22 µM
- Cc1cnc(-c2ccccc2C(C)C)nc1NCC1CCN(C)CC1 [Compound 71] — 490-fold higher, 30 µM
- Cc1cnc(-c2ccccc2C(C)C)nc1NCC1CCN(c2cnccn2)CC1 [Compound 76] — 2-fold higher, 0.12 µM
- Cc1cnc(-c2ccccc2C(C)C)nc1NCc1ccc(-c2cc[nH]n2)cc1 [Compound 88] — 2.5-fold higher, 0.15 µM
- Cc1cnc(-c2ccccc2C(C)C)nc1NCC1CCN(c2cccnc2)CC1 [Compound 74] — within 1.5-fold, 0.048 µM
- Cc1cccc(CNc2nc(-c3ccccc3C(C)C)ncc2C)c1 [Compound 67] — 2.3-fold higher, 0.14 µM
- Cc1cnc(-c2ccccc2C(C)C)nc1NCC1CC(c2cccnc2)C1 (stereo not drawn) [Compound 77] — 110-fold higher, 6.8 µM
- Cc1cnc(-c2ccccc2C(C)C)nc1NCC1CCN(c2cccnc2)C1 (stereo not drawn) [Compound 78] — 7.9-fold higher, 0.48 µM
